Assays:
[1] = Human hepatocyte stability, in vitro h-Hept CLpredict; type: in vitro ADME; details: cryopreserved hepatocytes, predicted hepatic clearance, cells without asterisk, read-out: hHep Cl
Procedure: The compounds disclosed herein were tested in vitro on human hepatocyte for in vitro h-Hept CLpredict according to the following procedures. • 1. Compound sock solutions were prepared by dissolving test compound and positive control in dimethyl sulfoxide (DMSO) at a concentration of 10 mM. Stock solutions were then diluted to 100 μM solutions by combining 198 μL of 50% acetonitrile/50% water with 2 μL of the 10 mM stock stock in separate conical tubes. • 2. Cryopreserved hepatocytes were prepared as follows: Incubation medium (William's E Medium supplemented with GlutaMAX) and hepatocyte thawing medium were placed in a 37° C. water bath and allowed to warm for at least 15 minutes prior to use. Cryopreserved hepatocytes were removed from storage, ensuring that vials remained at cryogenic temperatures until thawed. Cells were thawed by placing the vials in a 37° C. water bath and gently shaking the vials for 2 minutes. After thawing was completed, vials were sprayed with 70% ethanol and transferred to a biosafety cabinet. Hepatocytes were transferred into 50 mL conical tube containing thawing medium using wide-bore pipette tips. Tubes were placed into a centrifuge and spun at 100 g for 10 minutes. Then thawing medium was aspirated and hepatocytes were resuspended in enough incubation medium to yield−1.5×10^6 cells/mL. Cells were counted using acridine orange and propidium iodide (AO/PI) staining, and the viable cell density was determined. Cells were diluted with incubation medium to a working cell density of 0.5×10^6 viable cells/mL. • 3. To determine hepatocyte stability, 198 μL of hepatocytes were transferred into each well of a 96-well non-coated plate. Plates were placed in an incubator to allow the hepatocytes to warm for 10 minutes. • 4. The reaction was started by transferring 2 μL of the 100 μM test compound or positive control solution into respective wells of the 96-well non-coated plates. Plates were returned to the incubator until 25 μL aliquots of well contents were sampled at time points of 0, 15, 30, 60, 90 and 120 minutes. The aliquots were then mixed with 6 volumes (150 μL) of acetonitrile containing internal standard, IS (100 nM alprazolam, 200 nM caffeine and 100 nM tolbutamide) to terminate the reaction and vortexed for 5 minutes. After centrifuging the samples for 45 minutes at 3,220 g, aliquots of 100 μL of the supernatant were taken and diluted with 100 μL of ultra-pure water. The mixture was used for LC/MS/MS analysis. All incubations were performed in duplicate.
All calculations were carried out using Microsoft Excel. Peak area ratios (PAR) were determined from extracted ion chromatograms. The in vitro half-life (t1/2) of parent compound was determined by regression analysis of the percent parent disappearance vs. time curve as follows:
The in vitro half-life (in vitro t1/2) was determined from the slope value:
Conversion of the in vitro t1/2 (in minutes) into the in vitro intrinsic clearance (in vitro CLint, in μL/min/1×10^6 cells) was done using the following equation (mean of duplicate determinations): […]
The scaled-up intrinsic clearance (CLint, mL/min/kg), predicted hepatic clearance (CLH, mL/min/kg) and hepatic extraction ratio (ER) were calculated using the following equations:
CLint=(0.693/t1/2)*(1/(hepatocyte concentration (0.5*10^6 cells/mL))*scaling factors (Table (A)
• CLHept-predict=(QH*Scaled-up CLint*fub)/(QH+Scaled-up CLint*fub) • ER=CLH/QH • Where: • V=incubation volume (0.2 mL) • N=number of hepatocytes per well (0.1*10^6 cells) • QH=hepatic blood flow (mL/min/kg) (Table (A)
• fub=fraction of unbound drug in plasma, assumed to be 1 • Values used for calculation of the predicted hepatic clearance parameters data processing rules are outlined in the following tables (A) (B)

Caco-2 cells = assay: Caco-2 bidirectional permeability; type: in vitro ADME; details: for Caco-2 A2B (10^−6 cm/s): A to B; for Caco-2 A2B (10^−6 cm/s) / Caco-2 B2A (10^−6 cm/s): HBSS pH 7.4, 2 hours; for Caco-2 B2A (10^−6 cm/s): B to A; for Caco-2 ER: Efflux Ratio=Papp (BA)/Papp (AB)
Procedure: The compounds disclosed herein were tested in vitro on CaCo2 cell penetration according to the following procedures.
Test compounds were prepared in dimethyl sulfoxide (DMSO).
Caco-2 cells purchased from ATCC were seeded onto […] (PET) in 96-well Corning Insert plates at 1×10^5 cells/cm^2. The media were refreshed every 4 to 5 days until the 21st to 28th day for confluent cell monolayer formation.
Experiments were run in duplicate using a HBSS transport buffer containing 10 mM HEPES at pH 7.4. The test article TEST COMPOUND was tested bi-directionally at […] concentrations, the control compound digoxin was tested bi-directionally at 10 μM, and nadolol and metoprolol were tested at 2.0 μM in the A to B direction. Final DMSO concentrations were adjusted to less than 1%. The plates were incubated for 2 hours in a CO2 incubator at 37±1° C. with 5% CO2 at saturated humidity without shaking. Following incubation, samples were mixed with acetonitrile containing internal standard and centrifuged at 3200×g for 10 minutes. Then 200 μL of supernatant was taken from all samples. For TEST COMPOUND and digoxin, the supernatant was diluted with 200 μL of ultra-pure water and for nadolol and metoprolol, the supernatant was diluted with 600 μL of ultra-pure water. All samples were analyzed by LC-MS/MS. Concentrations of TEST COMPOUND and control compounds were determined in starting solutions, donor well solutions, and receiver well solutions using peak area ratios (PAR) of analyte to internal standard. After the transport assay, a lucifer yellow rejection assay was run to determine the Caco-2 cell monolayer integrity.
The apparent permeability (Papp), the % recovery and the efflux ratio were calculated as follows: • 1. Papp=(dCr/dt)×Vr/(A×C0) • 2. % Recovery=100×[(Vr×Cr)+(Vd×Cd)]/(Vd×C0) • 3. Efflux Ratio=Papp (BA)/Papp (AB) • Where: • dCr/dt is the slope of the cumulative concentration in the receiver compartment versus time (mM/s). • Vr and Vd is the volume in the receiver and donor compartments (0.075 mL on the apical side, 0.25 mL on the basolateral side), respectively. • A is the surface area of the cell monolayer (0.0804 cm^2). • C0 is the measured donor concentrations (μM) at the beginning of the experiment. • Cd and Cr are the final measured concentrations in the donor and receiver compartments, respectively.
The cell monolayer tight junction integrity assay was conducted after completion of the transport assay by adding Lucifer Yellow (LY) to the apical wells at 100 μM and incubating the cells for 30 minutes. Following incubation, tight junction integrity was assessed from LY concentrations in the basolateral compartment (receiver well) and the apical compartment (donor well) using fluorescence detection as follows: […]

[2] = biological target: T1, wt human LRRK2, catalytic site (Homo sapiens, UniProt Q5S007); assay: TR-FRET LanthaScreen Tb Kinase Activity Assay, LRRK2 kinase inhibition; type: biochemical; details: 2 nM wt human LRRK2, 400 nM peptide, 38 μM ATP
T1 construct: wt human LRRK2, catalytic site, catalytic site (ThermoFisher/USA); purchased ThermoFisher
T1 sequence (Q5S007 1879-2138 limits assumed): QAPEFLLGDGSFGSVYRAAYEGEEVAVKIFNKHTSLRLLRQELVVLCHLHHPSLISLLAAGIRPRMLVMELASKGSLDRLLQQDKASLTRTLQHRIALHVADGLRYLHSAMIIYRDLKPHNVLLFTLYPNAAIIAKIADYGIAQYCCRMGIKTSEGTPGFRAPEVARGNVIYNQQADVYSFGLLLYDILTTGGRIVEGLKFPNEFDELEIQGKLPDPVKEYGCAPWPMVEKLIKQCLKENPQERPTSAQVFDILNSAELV
Procedure: The compounds disclosed herein were tested for their inhibitory effect on LRRK2 kinase according to the following procedures.
The protocol for basic TR-FRET LanthaScreen Tb Kinase Activity Assay inhibitor studies is as follows. LanthaScreen Kinase Activity Assays (ThermoFisher/USA) to evaluate inhibitors were performed by addition of 100 nL of test compound in the corresponding DMSO dilutions/5 L of kinase/fluorescein-ERM(LRRKtide) peptide mixture, Compound & kinase were pre-incubated for 15 minutes, then 5 μl of ATP into 384 well small volume plates. After incubation for 120 minutes at room temperature, the detection reagents containing Tb-anti-pLRRKtide antibody were added to monitor the phosphrylation level of peptide. Then, after 60 min minutes incubation at room temperature plates were read in Envision. Data analysis of emission ratios was according to the LanthaScreen Tb Kinase Activity Assay protocol.
Kinase and assay components were adjusted to final concentrations according to the kit protocol. For LRRK2: 2 nM wt human LRRK2, catalytic site, catalytic site (ThermoFisher/USA), 400 nM peptide, 38 μM ATP in 1× Kinase Buffer A.
Basic protocol for TR-FRET LanthaScreen Tb Kinase Activity Assay inhibitor studies involved two steps: Enzymatic step: Addition of 100 nl of test compound in corresponding DMSO dilutions, 5 μl of kinase/substrate mixture, 5 μl of ATP into 384 well small volume plates. Incubation for 120 minutes at room temperature.
Detection step: Addition of 10 μl EDTA & antibody, read plate after 60 minutes. Data analysis of emission ratios according to KinEASE assay protocol.
Kinase and assay components were adjusted to final concentrations according to the kit protocol.

SMILES	CLhep predicted at 1 µM [1] [mL/min/kg]	Caco-2 A2B (10^−6 cm/s) (Caco-2 cells)	Caco-2 B2A (10^−6 cm/s) (Caco-2 cells)	Caco-2 ER (Caco-2 cells)	IC50 [2] [nM]
Cc1n[nH]c2c1N=C(c1c(F)cccc1F)Nc1cnc(N3CC(F)(F)C3)cc1-2 [Example 2, 13-(3,3-difluoroazetidin-1-yl)-8-(2,6-difluorophenyl)-5-methyl-3,4,7,9,12-pentazatricyclo[8.4.0.02,6]tetradeca-1(10),2(6),4,7,11,13-hexaene]	6.3 to 14.7	H (H (High permeability)”: A2B (B2A)>5)	H (H (High permeability)”: A2B (B2A)>5)	N (N (Non-substrate)”: ER<2.5)	< 2
Cc1n[nH]c2c1N=C(c1c(F)cccc1F)Nc1cnc(N3CCC(F)CC3)cc1-2 [Example 3, 8-(2,6-difluorophenyl)-13-(4-fluoro-1-piperidyl)-5-methyl-3,4,7,9,12-pentazatricyclo[8.4.0.02,6]tetradeca-1(10),2(6),4,7,11,13-hexaene]	6.3 to 14.7	H (H (High permeability)”: A2B (B2A)>5)	H (H (High permeability)”: A2B (B2A)>5)	N (N (Non-substrate)”: ER<2.5)	< 2
Cc1n[nH]c2c1N=C(c1c(F)cccc1F)Nc1ccc(-c3ccn(C(F)F)n3)cc1-2 [Example 14, 9-[1-(difluoromethyl)pyrazol-3-yl]-5-(2,6-difluorophenyl)-3-methyl-1,6-dihydropyrazolo[4,3-d][1,3]benzodiazepine]	> 14.7	H (H (High permeability)”: A2B (B2A)>5)	H (H (High permeability)”: A2B (B2A)>5)	N (N (Non-substrate)”: ER<2.5)	< 2
Cc1n[nH]c2c1N=C(c1c(F)cccc1F)Nc1cnc(-n3ccc(C(F)(F)F)n3)cc1-2 [Example 15, 8-(2,6-difluorophenyl)-5-methyl-13-[3-(trifluoromethyl)pyrazol-1-yl]-3,4,7,9,12-pentazatricyclo[8.4.0.02,6]tetradeca-1(10),2(6),4,7,11,13-hexaene]	6.3 to 14.7	M (M (Moderate permeability)”: 1≤A2B (B2A)≤5)	M (M (Moderate permeability)”: 1≤A2B (B2A)≤5)	N (N (Non-substrate)”: ER<2.5)	< 2
Cc1n[nH]c2c1N=C(c1c(F)cccc1F)Nc1cnc(NCc3ccc(F)cc3F)cc1-2 [Example 16, N-(2,4-difluorobenzyl)-5-(2,6-difluorophenyl)-3-methyl-1,6-dihydropyrazolo[4,3-d]pyrido[4,3-f][1,3]diazepin-9-amine]	6.3 to 14.7	H (H (High permeability)”: A2B (B2A)>5)	H (H (High permeability)”: A2B (B2A)>5)	N (N (Non-substrate)”: ER<2.5)	< 2

Next, values leading:

CLhep predicted at 1 µM [1] [mL/min/kg]	Caco-2 A2B (10^−6 cm/s) (Caco-2 cells)	Caco-2 B2A (10^−6 cm/s) (Caco-2 cells)	Caco-2 ER (Caco-2 cells)	IC50 [2] [nM]	SMILES
6.3 to 14.7	H (H (High permeability)”: A2B (B2A)>5)	H (H (High permeability)”: A2B (B2A)>5)	N (N (Non-substrate)”: ER<2.5)	< 2	Cc1n[nH]c2c1N=C(c1c(F)cccc1F)Nc1ccc(N3C[C@H](C)O[C@@H](C)C3)cc1-2 [Example 24, (2S,6S)-4-(5-(2,6-difluorophenyl)-3-methyl-1,6-dihydrobenzo[d]pyrazolo[3,4-f][1,3]diazepin-9-yl)-2,6-dimethylmorpholine]
< 6.3	H (H (High permeability)”: A2B (B2A)>5)	H (H (High permeability)”: A2B (B2A)>5)	N (N (Non-substrate)”: ER<2.5)	< 2	CCc1n[nH]c2c1N=C(c1c(F)cccc1F)Nc1cnc(N3CCO[C@@H](C)C3)cc1-2 [Example 35, (S)-4-(5-(2,6-difluorophenyl)-3-ethyl-1,6-dihydropyrazolo[4,3-d]pyrido[4,3-f][1,3]diazepin-9-yl)-2-methylmorpholine]
6.3 to 14.7	H (H (High permeability)”: A2B (B2A)>5)	H (H (High permeability)”: A2B (B2A)>5)	N (N (Non-substrate)”: ER<2.5)	< 2	Cc1n[nH]c2c1N=C(c1c(F)cccc1F)Nc1c-2cc(N2C[C@H](C)O[C@@H](C)C2)nc1C [Example 39, (2S,6S)-4-[8-(2,6-difluorophenyl)-5,11-dimethyl-3,4,7,9,12-pentazatricyclo[8.4.0.02,6]tetradeca-1(10),2(6),4,7,11,13-hexaen-13-yl]-2,6-dimethyl-morpholine]

From patent US20240208972A1, “LRRK2 INHIBITORS AND USES THEREOF” (NEURON23, INC., priority 2022, published 2024)
